Usually IC50 stands for the concentration at which inhibition is half-maximal.

One test has as its system HCT116 Parental. Nature of the test: Single agent proliferation assay (CellTiter-Glo, 72 h). Conditions: Homo sapiens, HCT-116, 72 h. In kind it is cell-based, human. As for the experimental part:
(§1) Cells were seeded in 96-well plates at the densities and media conditions indicated in Table 11 in McCoy's 5A containing either 10% FBS or 1% charcoal-stripped FBS (CS-FBS), and allowed to adhere overnight prior to addition of compound or vehicle control. Compounds were prepared from DMSO stocks to give the desired final concentrations. The final DMSO concentration was constant at 0.1%. Test compounds were incubated with the cells for 72 h at 37° C., 5% CO2 in a humidified atmosphere. CellTiter-Glo® reagent (Promega, Madison, Wis.) was added according to manufacturer's instructions and luminescence detected using the BMG FLUOstar plate reader (BMG Labtech, Ortenberg, Germany). The average media only background value was deducted and the data analysed using a 4-parameter logistic equation in GraphPad Prism (GraphPad Software, La Jolla, Calif.).
A general note: In ATP-based viability assays light output follows the ATP content of the culture.

The test system of test [1] is MAPK signaling in A375 cells. In words: Western blot of MAPK signaling, cell cycle and apoptosis markers. It counts as cell-based, human. As for the experimental part: (§2) For Western blot studies, HCT116 cells (5×10^6) were seeded into 10 cm dishes in McCoy's 5A plus 10% FBS. A375 cells (2.5×10^6) were seeded into 10 cm dishes in DMEM plus 10% FBS. Cells were allowed to adhere overnight prior to addition of the indicated amount of test compound (BVD-523) or vehicle control. Cells were treated for either 4 or 24 hours before isolation of whole-cell protein lysates, as specified below. Cells were harvested by trypsinisation, pelleted and snap frozen. Lysates were prepared with RIPA (Radio-Immunoprecipitation Assay) buffer, clarified by centrifugation and quantitated by bicinchoninic acid assay (BCA) assay. 20-50 μg of protein was resolved by SDS-PAGE electrophoresis, blotted onto PVDF membrane and probed using the antibodies detailed in Table 9 (for the 4-hour treatment) and Table 10 (for the 24-hour treatment) below.

Another test concerns parental HCT116 cells. In words: Combination proliferation assay (Loewe/Bliss). It counts as cell-based. Conditions: Homo sapiens, HCT-116, 2.5% serum, mean of n=4 separate combinations, read-out: IC50 (single agent, derived from combination assay plates). On the procedure:
Cells were seeded into triplicate 96-well plates at the densities indicated in Table 11 in McCoy's 5A media containing 2.5% FBS and allowed to adhere overnight prior to addition of test compound or vehicle control. Combinations were tested using either a 10×8 or for the follow-up HCT116 study a 3×1 dose matrix.
Test compounds were incubated with the cells for 72 h at 37° C., 5% CO2 in a humidified atmosphere. CellTiter-Glo® reagent (Promega, Madison, Wis.) was added according to manufacturer's instructions and luminescence detected using the BMG FLUOstar plate reader (BMG Labtech, Ortenberg, Germany). The average media only background value was deducted and the data analysed.
For the 10×8 combination assays the combination interactions across the dose matrix were determined by the Loewe Additivity and Bliss independence models using Chalice™ Combination Analysis Software (Horizon Discovery Group, Cambridge, Mass.) as outlined in the user manual (available at chalice.horizondiscovery.com/chalice-portal/documentation/analyzer/home.jsp). Synergy is determined by comparing the experimentally observed level of inhibition at each combination point with the value expected for additivity, which is derived from the single-agent responses along the edges of the matrix. […]

Another test deals with HCT116 PIK3CA (+/−). In words: Single agent proliferation assay (CellTiter-Glo, 72 h). It counts as cell-based, human. Conditions: Homo sapiens, HCT-116, 72 h. As for the experimental part:
as §1, with “Compounds were prepared from DMSO stocks to give the desired final concentrations.” left out

Test [2] has as its system MAPK signaling in HCT-116 cells. Nature of the test: Western blot of MAPK signaling markers. It counts as cell-based, human. Conditions: HCT116 KRAS mutant cell line, 4 hours, micromolar concentrations. On the procedure:
as §2

[3] abbreviates: A375, prolonged (24 hours) treatment.

Entries after “also recorded” stand apart in the source; their conditions may differ.

As for `CC(C)Nc1cc(-c2c[nH]c(C(=O)N[C@H](CO)c3cccc(Cl)c3)c2)c(Cl)cn1` [BVD-523], the IC50 came to 20 nM with HCT116 Parental (1% CS-FBS); 170 nM in the test with HCT116 Parental (10% FBS); 130 nM in the test on parental HCT116 cells; 10 nM in the test on HCT116 PIK3CA (+/−) (1% CS-FBS); 120 nM in the test with HCT116 PIK3CA (+/−) (10% FBS). For the same compound, the cyclin-D1 protein level result in test [1] (24 hours (prolonged) treatment) is reported as “greatly reduced”. Besides, the “MAPK feedback phosphatase DUSP6 protein level” value in test [1] (24 hours (prolonged) treatment, BRAF mutant cells) was “greatly reduced”. Moreover, in test [1] (setting [3]), the “Apoptosis / PARP cleavage” value was “PARP protein cleavage and increased apoptosis were not noted; also recorded: increased apoptosis was not observed”. In addition, the Bim-EL level result in test [1] (setting [3]) is “increased”. Further, the “Phosphorylation of ERK-dependent residues (T359/S363) in RSK 1 and 2” value in test [1] (A375 BRAF mutant cell line, 4 hours, micromolar concentrations) was “reduced”; in test [2] it was “reduced”. The “Concentrations required to induce changes in substrate phosphorylation and effector targets of ERK kinases” value in test [1] (RAF and RAS mutant cancer cells in-vitro, acute and prolonged treatment) was “low micromolar range”. Besides, the “Cellular ERK enzyme activity” value in test [1] (acute or prolonged treatment) was “fully inhibited”.

The values above are taken from patent US11007183B2, “Cancer treatments using combinations of PI3K/Akt pathway and ERK inhibitors” (BIOMED VALLEY DISCOVERIES, INC., priority 2013, dated 2021).
